Source: the supplement of paper PMC10307832

What was measured:
Assay in all cases: relative viability (nuclei count vs DMSO), 5 days (fraction); higher = more cells survive
BAM7 + Decitabine = compound: CCOC1=CC=CC=C1N=NC2=C(NN(C2=O)C3=NC(=CS3)C4=CC=CC=C4)C [BAM7] + Nc1ncn([C@H]2C[C@H](O)[C@@H](CO)O2)c(=O)n1 [Decitabine] (partner 2 µM)
How it was run: (§1)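 Values are medians from duplicate plates. Each reflects relative viability, defined as the nuclei count of treated wells over that of vehicle wells. Lung cancer cell lines in 1536-well plates were pin-tool dosed one day after seeding with one drug alone or with a fixed anchor-drug dose plus five library-drug doses (not always all listed) in √10 steps, then fixed, stained and imaged at 4× after 5 days.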

[1] = compound: CCn1c(-c2nonc2N)nc2c(C#CC(C)(C)O)ncc(OC[C@H]3CCCNC3)c21 + C[C@]1(O)C[C@@H](c2nc(-c3ccc4ccc(-c5ccccc5)nc4c3)c3c(N)nccn32)C1 [Linsitinib] (partner 1 µM)
How it was run: as §1

BAM7 = compound: CCOC1=CC=CC=C1N=NC2=C(NN(C2=O)C3=NC(=CS3)C4=CC=CC=C4)C [BAM7]
How it was run: (§2)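 Viability was defined as treated-well nuclei divided by vehicle-well nuclei, with the median taken over replicate plates. Cells from lung cancer lines sat overnight at 37 °C in 1536-well plates, received five √10-spaced library-drug doses by pinning on vehicle-anchored plates, and grew 5 days without medium change before one-step fixation, permeabilisation and Hoechst staining, 4× imaging and MetaXpress nuclear counts. Only plates with control CV under 25% and at least one doubling were kept.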

[2] = compound: CCn1c(-c2nonc2N)nc2c(C#CC(C)(C)O)ncc(OC[C@H]3CCCNC3)c21
How it was run: as §2

UMC-11
relative viability (BAM7 + Decitabine; first compound 0.5 µM): 0.603 | relative viability (BAM7 + Decitabine; first compound 5 µM): 0.687 | relative viability (BAM7 + Decitabine; first compound 15.81 µM): 0.618 | relative viability (BAM7 + Decitabine; first compound 50 µM): 0.635 | relative viability ([1]; first compound 0.01 µM): 0.991 | relative viability ([1]; first compound 0.03162 µM): 1.05 | relative viability ([1]; first compound 0.1 µM): 0.974 | relative viability ([1]; first compound 0.3162 µM): 0.976 | relative viability ([1]; first compound 1 µM): 1.04 | relative viability (BAM7; 0.5 µM): 1.01 | relative viability (BAM7; 5 µM): 1.1 | relative viability (BAM7; 15.81 µM): 1.06 | relative viability (BAM7; 50 µM): 1.07 | relative viability ([2]; 0.01 µM): 0.955 | relative viability ([2]; 0.03162 µM): 1.02 | relative viability ([2]; 0.1 µM): 0.957 | relative viability ([2]; 0.3162 µM): 0.982 | relative viability ([2]; 1 µM): 0.943
